Where two headings read alike, the source gives them in different places.

Series [1] deals with Enterobacter cloacae IR 386 (NDM-1). As to the kind of experiment: MIC, broth microdilution and checkerboard assay. It is filed as cell-based. As for the experimental part:
(§1) The Minimum Inhibitory Concentration (MIC) of meropenem BP2 was determined utilizing the broth microdilution assay, as described by the Clinical and Laboratory Standards Institute (CLSI) antimicrobial susceptibility guidelines. The mono-therapeutic effect of each antibiotic and MBLI was evaluated across a panel of MBL-producing Enterobacterales.
(§2) The drug susceptibility profile of meropenem in combination with BP2 was studied using the checkerboard assay. This assay was used to ascertain the effect of two drugs on antimicrobial resistance targeting CRE strains. The assay was performed according to the protocol described previously and was under CLSI antimicrobial susceptibility guidelines. Briefly, twofold dilutions of meropenem with each chelator were made in Cation-adjusted Mueller Hinton Broth (CAMHB) in a 96-well microtiter plate. A 0.5 McFarland-standardized bacterial inoculum was added to each well to obtain a final volume of 100 µL per well. Thereafter, plates were incubated at 37 °C for 18 h under aerobic conditions. The checkerboard assays were performed in triplicate. The MIC was determined as the lowest concentration at which no visible growth was present. The fractional inhibitory concentration index (FICI) was calculated for each combination according to the equation FICI = FICa (MIC of drug A in combination/MIC of drug A alone) + FICb (MIC of drug B in combination/MIC of drug B alone). The FICI was interpreted as follows: synergy, FICI ≤ 0.5; additive 0.5–1; indifference, […] FICI < 4; and antagonism, FICI ≥ 4 [61].
(In general: Dilution methods test growth across graded concentrations, often in twofold steps.)

For series [2], the system named is Klebsiella pneumoniae DIH (VIM-19). As to the kind of experiment: MIC, broth microdilution and checkerboard assay. It is filed as cell-based. As for the experimental part: as §1, §2
The test system of series [3] is Providencia Rettgeri IR38 (NDM-1). The series can be described thus: MIC, broth microdilution and checkerboard assay. It is filed as cell-based. As for the experimental part: as §1, §2
Series [4] has as its system Serratia marcescens (IMP-11). As to the kind of experiment: MIC, broth microdilution and checkerboard assay. The series is classed as cell-based. As to the method:
as §1, §2

Series [5] deals with Escherichia coli JAP (IMP-1). The series can be described thus: MIC, broth microdilution and checkerboard assay. It is filed as cell-based. As for the experimental part: as §1, §2
The test system of series [6] is Providencia stuartii PSTU (NDM-1). The series can be described thus: MIC, broth microdilution and checkerboard assay. The series is classed as cell-based. As for the experimental part:
as §1, §2

Series [7] concerns Escherichia coli BM 14 (VIM-1). As to the kind of experiment: MIC, broth microdilution and checkerboard assay. It is filed as cell-based. As to the method: as §1, §2
Series [8] relates to Escherichia coli FEK (NDM-4). As to the kind of experiment: MIC, broth microdilution and checkerboard assay. The series is classed as cell-based. As for the experimental part:
as §1, §2

The test system of series [9] is Escherichia coli DIH (VIM-19). The series can be described thus: MIC, broth microdilution and checkerboard assay. It is filed as cell-based. As for the experimental part: as §1, §2
The test system of series [10] is Escherichia coli TWA (IMP-8). As to the kind of experiment: MIC, broth microdilution and checkerboard assay. The series is classed as cell-based. As to the method: as §1, §2
For series [11], the system named is Serratia marcescens BM 20 (VIM-2). As to the kind of experiment: MIC, broth microdilution and checkerboard assay. The series is classed as cell-based. As for the experimental part: as §1, §2
The subject of series [12] is Klebsiella pneumoniae ENNES (VIM-1). The series can be described thus: MIC, broth microdilution and checkerboard assay. The series is classed as cell-based. As for the experimental part:
as §1, §2

Series [13] concerns Klebsiella pneumoniae 6852 (IMP-1). As to the kind of experiment: MIC, broth microdilution and checkerboard assay. It is filed as cell-based. As to the method:
as §1, §2

Series [14] concerns Enterobacter cloacae TWA (IMP-8). As to the kind of experiment: MIC, broth microdilution and checkerboard assay. The series is classed as cell-based. As to the method:
as §1, §2

The subject of series [15] is Escherichia coli AUS 271 (NDM-1). The series can be described thus: MIC, broth microdilution and checkerboard assay. It is filed as cell-based. As to the method: as §1, §2
The subject of series [16] is Enterobacter cloacae BM 5 (IMP-1). The series can be described thus: MIC, broth microdilution and checkerboard assay. The series is classed as cell-based. As for the experimental part: as §1, §2
Series [17] concerns Enterobacter cloacae KAR (VIM-1). As to the kind of experiment: MIC, broth microdilution and checkerboard assay. It is filed as cell-based. As to the method:
as §1, §2

Series [18] has as its system Klebsiella pneumoniae TWA (IMP-8). As to the kind of experiment: MIC, broth microdilution and checkerboard assay. It is filed as cell-based. As to the method:
as §1, §2

Series [19] is described as follows: Single-dose pharmacokinetic experiment. It is filed as in vivo. The following applies: for Time of peak concentration (Cmax) after drug administration: single dose, plasma. As for the experimental part:
In order to evaluate BP2’s potential to act synergetically with antibacterial agents such as meropenem in vivo, we next performed a single-dose pharmacokinetic experiment to ensure an appropriate dosing schedule for achieving a safe and therapeutic concentration of BP2 in plasma. […] Constant concentrations were then reached after two hours. A plasma concentration of 1.93 µg/L was obtained with a dose of 10 mg/kg.b.w. This was far below the cytotoxicity concentrations seen in the cell viability assays, advocating for the safe increase in the treatment dose to 100 mg/kg.b.w, which allowed us to reach therapeutic concentrations (Figure 6) in plasma without the possibility of toxicity. In vivo efficacy studies were undertaken to assess the potency of BP2 in a murine infection model. This five-day animal trial was initiated by immune-suppressing the mice with cyclophosphamide to allow the progression of infection and allow BP2 + meropenem treatment to be studied over eight hours on day five of the trial. In addition, it excludes the effects of the innate immune response as a potential variable. This is important since many carbapenem-resistant infections are acquired as secondary infections in immune-suppressed hosts. The mice were successfully infected with Klebsiella pneumoniae NDM, evidenced by visible inflammation of the localized area; this correlated with the cfu/thigh data expressed (Tables S1–S3). Three treatment regimens of S (saline only), M (meropenem only), and BP2 combination therapy (BP2 + meropenem) were used to randomly categorize mice.
A Shimadzu Nexera Series (Shimadzu Corporation, Kyoto, Japan) liquid chromatography system was coupled with Shimadzu LCMS-8050 tandem mass spectrometer (Shimadzu, Kyoto, Japan). […] Quantitative and qualitative studies were conducted using MRM mode via an ESI interface, with the following source parameters: nitrogen nebulizer gas flow 3 L/min; heat gas 10 L/min and interface temperature of 300 °C. […] Results were analyzed using LabSolutions Insight LCMS. All data are expressed as a mean ± SD.

One may read the MIC as the lowest concentration found to suppress growth. With `CON=C(C(=O)NC1C(=O)N2C(C(=O)O)=C(COC(C)=O)CSC12)c1csc(NC(=O)CC(C(=O)OC)N2CCN(CC(=O)O)CCN(CC(=O)O)CC2)n1` (stereo in doubt) [BP2], the MIC in [1] (read-out: MIC BP2 Alone), in [2] (read-out: MIC BP2 Alone), in series [3] (read-out: MIC BP2 Alone), in series [4] (read-out: MIC BP2 Alone), in [5] (read-out: MIC BP2 Alone) and in series [6] (read-out: MIC BP2 Alone) was more than 256 µg/mL each time. Also, the MIC in [7] (read-out: MIC BP2 Alone), in series [8] (read-out: MIC BP2 Alone), in [9] (read-out: MIC BP2 Alone), in series [10] (read-out: MIC BP2 Alone), in series [11] (read-out: MIC BP2 Alone) and in series [12] (read-out: MIC BP2 Alone) was more than 256 µg/mL each time. Also, the MIC in series [13] (read-out: MIC BP2 Alone), in series [14] (read-out: MIC BP2 Alone), in [15] (read-out: MIC BP2 Alone), in [16] (read-out: MIC BP2 Alone), in [17] (read-out: MIC BP2 Alone) and in [18] (read-out: MIC BP2 Alone) was more than 256 µg/mL throughout. The Plasma concentration in series [19] (dose of 10 mg/kg.b.w) is 1.93 ng/mL. Moreover, the “Time of peak concentration (Cmax) after drug administration” value in series [19] worked out at 15 min.

Take `C[C@@H](O)[C@H]1C(=O)N2C(C(=O)O)=C(S[C@@H]3CN[C@H](C(=O)N(C)C)C3)[C@H](C)[C@H]12` [Meropenem]: the MIC was 32 µg/mL in [1] (E. cloacae IR 386 NDM-1, alone, read-out: MIC MEM Alone); 32 µg/mL in series [2] (K. pneumoniae DIH VIM-19, alone, read-out: MIC MEM Alone); 32 µg/mL in series [3] (P. Rettgeri IR38 NDM-1, alone, read-out: MIC MEM Alone); more than 32 µg/mL in series [4] (S. marcescens IMP-11, alone, read-out: MIC MEM Alone); 8 µg/mL in series [5] (E. coli JAP IMP-1, alone, read-out: MIC MEM Alone); 32 µg/mL in series [6] (P. stuartii PSTU NDM-1, alone, read-out: MIC MEM Alone). In addition, the minimum inhibitory concentration (MIC) in series [7] (E. coli BM 14 VIM-1, alone, read-out: MIC MEM Alone) is 32 µg/mL; in series [8] (E. coli FEK NDM-4, alone, read-out: MIC MEM Alone) it was more than 32 µg/mL; in [9] (E. coli DIH VIM-19, alone, read-out: MIC MEM Alone) it was more than 32 µg/mL; in [10] (E. coli TWA IMP-8, alone, read-out: MIC MEM Alone), 8 µg/mL; in series [11] (S. marcescens BM 20 VIM-2, alone, read-out: MIC MEM Alone), more than 32 µg/mL; in [12] (K. pneumoniae ENNES VIM-1, alone, read-out: MIC MEM Alone), more than 32 µg/mL. For the same molecule, the MIC in series [13] (K. pneumoniae 6852 IMP-1, alone, read-out: MIC MEM Alone) is more than 32 µg/mL; in [14] (E. cloacae TWA IMP-8, alone, read-out: MIC MEM Alone) it was 0.125 µg/mL; in series [15] (E. coli AUS 271 NDM-1, alone, read-out: MIC MEM Alone), more than 128 µg/mL; in series [16] (read-out: MIC MEM Alone), more than 32 µg/mL; in [17] (E. cloacae KAR VIM-1, alone, read-out: MIC MEM Alone), 4 µg/mL; in [18] (K. pneumoniae TWA IMP-8, alone, read-out: MIC MEM Alone) it was 8 µg/mL. Moreover, the “Time of peak concentration (Cmax) after drug administration” value in series [19] came out at 15 min.

(Values after publication PMC10135050, “Neutralizing Carbapenem Resistance by Co-Administering Meropenem with Novel β-Lactam-Metallo-β-Lactamase Inhibitors” (Antibiotics, 2023).)
